Experimental data from patent US7642251B2, “Compounds for the treatment of hepatitis C” (Bristol-Myers Squibb Company, priority 2007, dated 2010).

Assays:
HCV NS5B = molecular target: T1, HCV NS5B (Hepatitis C virus genotype 1b, UniProt Q9WMX2); experiment: Modified HCV NS5B RdRp enzyme assay (preincubation protocol); format: biochemical; conditions: preincubation protocol; read-out: IC50
T1 construct: The cDNA encoding the NS5B protein of HCV, genotype 1b; made in house; host or cells: E. coli BL21(DE3)
T1 sequence (Q9WMX2 2420-2992): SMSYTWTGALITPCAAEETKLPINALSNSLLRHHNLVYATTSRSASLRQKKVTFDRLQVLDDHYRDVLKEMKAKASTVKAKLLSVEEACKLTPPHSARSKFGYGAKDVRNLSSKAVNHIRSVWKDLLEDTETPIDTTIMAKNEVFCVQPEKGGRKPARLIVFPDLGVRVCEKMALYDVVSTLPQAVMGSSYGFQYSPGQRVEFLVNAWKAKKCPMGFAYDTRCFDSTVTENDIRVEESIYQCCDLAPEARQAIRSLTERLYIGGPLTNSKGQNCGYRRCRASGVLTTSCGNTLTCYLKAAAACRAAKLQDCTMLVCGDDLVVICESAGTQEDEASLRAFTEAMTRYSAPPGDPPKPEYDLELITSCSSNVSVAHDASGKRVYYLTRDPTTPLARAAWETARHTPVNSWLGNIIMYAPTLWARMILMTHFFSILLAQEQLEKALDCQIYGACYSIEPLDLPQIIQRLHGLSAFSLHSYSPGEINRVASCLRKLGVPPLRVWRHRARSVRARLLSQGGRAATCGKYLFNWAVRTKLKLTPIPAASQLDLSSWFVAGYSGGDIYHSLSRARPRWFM
Method: HCV NS5B RdRp cloning, expression, and purification. The cDNA encoding the NS5B protein of HCV, genotype 1b, was cloned into the pET21a expression vector. The protein was expressed with an 18 amino acid C-terminal truncation to enhance the solubility. The E. coli competent cell line BL21(DE3) was used for expression of the protein. Cultures were grown at 37° C. for ˜4 hours until the cultures reached an optical density of 2.0 at 600 nm. The cultures were cooled to 20° C. and induced with 1 mM IPTG. Fresh ampicillin was added to a final concentration of 50 μg/ml and the cells were grown overnight at 20° C.
Cell pellets (3 L) were lysed for purification to yield 15-24 mgs of purified NS5B. The lysis buffer consisted of 20 mM Tris-HCl, pH 7.4, 500 mM NaCl, 0.5% triton X-100, 1 mM DTT, 1 mM EDTA, 20% glycerol, 0.5 mg/ml lysozyme, 10 mM MgCl2, 15 ug/ml deoxyribonuclease I, and Complete™ protease inhibitor tablets (Roche). After addition of the lysis buffer, frozen cell pellets were resuspended using a tissue homogenizer. To reduce the viscosity of the sample, aliquots of the lysate were sonicated on ice using a microtip attached to a Branson sonicator. The sonicated lysate was centrifuged at 100,000×g for 1 hr at 4° C. and filtered through a 0.2 μm filter unit (Corning).
The protein was purified using three sequential chromatography steps: Heparin sepharose CL-6B, polyU sepharose 4B, and Hitrap SP sepharose (Pharmacia). The chromatography buffers were identical to the lysis buffer but contained no lysozyme, deoxyribonuclease I, MgCl2 or protease inhibitor and the NaCl concentration of the buffer was adjusted according to the requirements for charging the protein onto the column. Each column was eluted with a NaCl gradient which varied in length from 5-50 column volumes depending on the column type. After the final chromatography step, the resulting purity of the enzyme is >90% based on SDS-PAGE analysis. The enzyme was aliquoted and stored at −80° C.
Standard HCV NS5B RdRp enzyme assay. HCV RdRp genotype 1b assays were run in a final volume of 60 μl in 96 well plates (Costar 3912). The assay buffer is composed of 20 mM Hepes, pH 7.5, 2.5 mM KCl, 2.5 mM MgCl2, 1 mM DTT, 1.6 U RNAse inhibitor (Promega N2515), 0.1 mg/ml BSA (Promega R3961), and 2% glycerol. All compounds were serially diluted (3-fold) in DMSO and diluted further in water such that the final concentration of DMSO in the assay was 2%. HCV RdRp genotype 1b enzyme was used at a final concentration of 28 nM. A polyA template was used at 6 nM, and a biotinylated oligo-dT12 primer was used at 180 nM final concentration. Template was obtained commercially (Amersham 27-4110). Biotinylated primer was prepared by Sigma Genosys. 3H-UTP was used at 0.6 μCi (0.29 μM total UTP). Reactions were initiated by the addition of enzyme, incubated at 30° C. for 60 min, and stopped by adding 25 μl of 50 mM EDTA containing SPA beads (4 μg/μl, Amersham RPNQ 0007). Plates were read on a Packard Top Count NXT after >1 hr incubation at room temperature.
Modified HCV NS5B RdRp enzyme assay. A modified enzyme assay was performed essentially as described for the standard enzyme assay except for the following: The biotinylated oligo dT12 primer was precaptured on streptavidin-coated SPA beads by mixing primer and beads in assay buffer and incubating at room temperature for one hour. Unbound primer was removed after centrifugation. The primer-bound beads were resuspended in 20 mM Hepes buffer, pH 7.5 and used in the assay at final concentrations of 20 nM primer and 0.67 μg/μl beads. Order of addition in the assay: enzyme (14 nM) was added to diluted compound followed by the addition of a mixture of template (0.2 nM), 3H-UTP (0.6 μCi, 0.29 μM), and primer-bound beads, to initiate the reaction; concentrations given are final. Reactions were allowed to proceed for 4 hours at 30° C.
IC50 values for compounds were determined using seven different [I]. […]

HCV replicon cells = experiment: HCV replicon FRET assay; format: cell-based; conditions: Hepatitis C virus; FRET assay; read-out: EC50
Text: FRET Assay Preparation. To perform the HCV FRET screening assay, 96-well cell culture plates were used. The FRET peptide (Anaspec, Inc.) (Taliani et al., Anal. Biochem. 1996, 240, 60-67) contains a fluorescence donor, EDANS, near one end of the peptide and an acceptor, DABCYL, near the other end. The fluorescence of the peptide is quenched by […] resonance energy transfer (RET) between the donor and the acceptor, but as the NS3 protease cleaves the peptide the products are released from RET quenching and the fluorescence of the donor becomes apparent. The assay reagent was made as follows: 5× cell Luciferase cell culture lysis reagent from Promega (#E153A) diluted to 1× with dH2O, NaCl added to 150 mM final, the FRET peptide diluted to 20 μM final from a 2 mM stock.
To prepare plates, HCV replicon cells, with or without a Renilla luciferase reporter gene, were trypsinized and placed into each well of a 96-well plate with titrated test compounds added in columns 3 through 12; columns 1 and 2 contained a control compound (HCV protease inhibitor), and the bottom row contained cells without compound. The plates were then placed in a CO2 incubator at 37° C.
Assays. Subsequent to addition of the test compounds described above (FRET Assay Preparation), at various times the plate was removed and Alamar blue solution (Trek Diagnostics, #00-100) was added per well as a measure of cellular toxicity. After reading in a Cytoflour 4000 instrument (PE Biosystems), plates were rinsed with PBS and then used for FRET assay by the addition of 30 ul of the FRET peptide assay reagent described above (FRET Assay Preparation) per well. The plate was then placed into the Cytoflour 4000 instrument which had been set to 340 excite/490 emission, automatic mode for 20 cycles and the plate read in a kinetic mode. Typically, the signal to noise using an endpoint analysis after the reads was at least three-fold. Alternatively, after Alamar blue reading, plates were rinsed with PBS, 50 ul of DMEM (high glucose) without phenol red was added and plates were then used for luciferase assay using the Promega Dual-Glo Luciferase Assay System.
Compound analysis was determined by quantification of the relative HCV replicon inhibition and the relative cytotoxicity values. To calculate cytoxicity values, the average Alamar Blue fluorescence signals from the control wells were set as 100% non-toxic. The individual signals in each of the compound test wells were then divided by the average control signal and multiplied by 100% to determine […]. To calculate the HCV replicon inhibition values, an average background value was obtained from the two wells containing the highest amount of HCV protease inhibitor at the end of the assay period. These numbers were similar to those obtained from naïve Huh-7 cells.
The background numbers were then subtracted from the average signal obtained from the control wells and this number was used as 100% activity. The individual signals in each of the compound test wells were then divided by the averaged control values after background subtraction and multiplied by 100% to determine percent activity. EC50 values for a protease inhibitor titration were calculated as the concentration which caused a 50% reduction in FRET or luciferase activity. The two numbers generated for the compound plate, percent cytoxicity and percent activity were used to determine compounds of interest for further analysis.

Compound	IC50 (HCV NS5B)	EC50 (HCV replicon cells)
COc1ccc2c(c1)C=C(c1ncccc1C(=O)N1CCOCC1)Cn1c-2c(C2CCCCC2)c2ccc(C(=O)O)cc21	4.58 to 500 nM	4.58 to 500 nM
COc1ccc2c(c1)C=C(c1cccc(N3CCOCC3)n1)Cn1c-2c(C2CCCCC2)c2ccc(C(=O)O)cc21	> 500 nM	> 500 nM
COc1ccc2c(c1)C=C(c1nccc(N(C)C)n1)Cn1c-2c(C2CCCCC2)c2ccc(C(=O)O)cc21	> 500 nM	> 500 nM
COc1ccc2c(c1)C=C(c1ccc(N3CCOCC3)nn1)Cn1c-2c(C2CCCCC2)c2ccc(C(=O)NS(=O)(=O)N(C)C)cc21	4.58 to 500 nM	> 500 nM
COc1ccc2c(c1)C=C(c1nccc(N(C)C)n1)Cn1c-2c(C2CCCCC2)c2ccc(C(=O)NS(=O)(=O)N(C)C)cc21	4.58 to 500 nM	> 500 nM
COc1ccc2c(c1)C=C(c1ncccc1N(C)C)Cn1c-2c(C2CCCCC2)c2ccc(C(=O)NS(=O)(=O)N(C)C)cc21	4.58 to 500 nM	4.58 to 500 nM
COc1ccc2c(c1)C=C(c1nccc(C(=O)N3CCOCC3)n1)Cn1c-2c(C2CCCCC2)c2ccc(C(=O)NS(=O)(=O)N(C)C)cc21	4.58 to 500 nM	4.58 to 500 nM
COc1ccc2c(c1)C=C(c1ncccc1S(=O)(=O)N1CCOCC1)Cn1c-2c(C2CCCCC2)c2ccc(C(=O)NS(=O)(=O)N(C)C)cc21	4.58 to 500 nM	4.58 to 500 nM
COc1ccc2c(c1)C=C(c1ncccc1N1CC(C)(C)C1=O)Cn1c-2c(C2CCCCC2)c2ccc(C(=O)NS(=O)(=O)N(C)C)cc21	4.58 to 500 nM	4.58 to 500 nM
COc1ccc2c(c1)C=C(c1ncccc1C(=O)N1CCN(C)CC1)Cn1c-2c(C2CCCCC2)c2ccc(C(=O)NS(=O)(=O)N(C)C)cc21	4.58 to 500 nM	4.58 to 500 nM
COc1ccc2c(c1)C=C(c1ncccc1C(=O)N(C)C)Cn1c-2c(C2CCCCC2)c2ccc(C(=O)NS(=O)(=O)N(C)C)cc21	4.58 to 500 nM	4.58 to 500 nM
COc1ccc2c(c1)C=C(c1ncccc1C(=O)N1CCCC1)Cn1c-2c(C2CCCCC2)c2ccc(C(=O)NS(=O)(=O)N(C)C)cc21	4.58 to 500 nM	4.58 to 500 nM
COc1ccc2c(c1)C=C(c1ncccc1C(=O)N1CCC(O)CC1)Cn1c-2c(C2CCCCC2)c2ccc(C(=O)NS(=O)(=O)N(C)C)cc21	4.58 to 500 nM	4.58 to 500 nM
COc1ccc2c(c1)C=C(c1ncccc1C(=O)N1CCCCC1)Cn1c-2c(C2CCCCC2)c2ccc(C(=O)NS(=O)(=O)N(C)C)cc21	4.58 to 500 nM	4.58 to 500 nM
COc1ccc2c(c1)C=C(c1ccccc1)Cn1c-2c(C2CCCCC2)c2ccc(C(=O)NS(=O)(=O)N(C)C)cc21	4.58 to 500 nM	> 500 nM
COc1ccc2c(c1)CC(c1ncccc1C(=O)N1CCOCC1)Cn1c-2c(C2CCCCC2)c2ccc(C(=O)NS(=O)(=O)N(C)C)cc21 (stereo not drawn)	4.58 to 500 nM	4.58 to 500 nM
COc1ccc2c(c1)CC(c1cccc(N3CCOCC3)n1)Cn1c-2c(C2CCCCC2)c2ccc(C(=O)NS(=O)(=O)N(C)C)cc21 (stereo not drawn)	4.58 to 500 nM	4.58 to 500 nM
COc1ccc2c(c1)CC(c1cc(C(=O)N3CCOCC3)ccn1)Cn1c-2c(C2CCCCC2)c2ccc(C(=O)NS(=O)(=O)N(C)C)cc21 (stereo not drawn)	4.58 to 500 nM	4.58 to 500 nM
COc1ccc2c(c1)C1CC1(c1ncccc1C(=O)N1CCN(C)CC1)Cn1c-2c(C2CCCCC2)c2ccc(C(=O)NS(=O)(=O)N(C)C)cc21 (stereo not drawn)	4.58 to 500 nM	4.58 to 500 nM
COc1ccc2c(c1)C=C(c1ccccc1OC(F)F)Cn1c-2c(C2CCCCC2)c2ccc(C(=O)NS(=O)(=O)C(C)C)cc21	4.58 to 500 nM	> 500 nM
COc1ccc2c(c1)C=C(c1ccccc1)Cn1c-2c(C2CCCCC2)c2ccc(C(=O)NS(=O)(=O)C(C)C)cc21	4.58 to 500 nM	> 500 nM
COc1ccc2c(c1)C=C(c1ccccc1-c1noc(C)n1)Cn1c-2c(C2CCCCC2)c2ccc(C(=O)NS(=O)(=O)C(C)C)cc21	4.58 to 500 nM	4.58 to 500 nM
COc1ccc2c(c1)C=C(c1ccccc1S(=O)(=O)N(C)C)Cn1c-2c(C2CCCCC2)c2ccc(C(=O)NS(=O)(=O)C(C)C)cc21	4.58 to 500 nM	> 500 nM
COc1ccc2c(c1)C=C(c1cc(C(F)(F)F)ccc1N1CCOCC1)Cn1c-2c(C2CCCCC2)c2ccc(C(=O)NS(=O)(=O)C(C)C)cc21	> 500 nM	> 500 nM
COc1ccc2c(c1)C=C(c1ccccc1NC(=O)C1CC1)Cn1c-2c(C2CCCCC2)c2ccc(C(=O)NS(=O)(=O)C(C)C)cc21	4.58 to 500 nM	4.58 to 500 nM
COc1ccc2c(c1)C=C(c1ccccc1OCCN1CCOCC1)Cn1c-2c(C2CCCCC2)c2ccc(C(=O)NS(=O)(=O)C(C)C)cc21	4.58 to 500 nM	4.58 to 500 nM
COc1ccc2c(c1)C=C(c1ccccc1OCCN(C)C)Cn1c-2c(C2CCCCC2)c2ccc(C(=O)NS(=O)(=O)C(C)C)cc21	4.58 to 500 nM	4.58 to 500 nM
COc1ccc2c(c1)C=C(c1ccccc1CS(C)(=O)=O)Cn1c-2c(C2CCCCC2)c2ccc(C(=O)NS(=O)(=O)C(C)C)cc21	4.58 to 500 nM	4.58 to 500 nM
COc1ccc2c(c1)C=C(c1cccc(OCCN(C)C)c1)Cn1c-2c(C2CCCCC2)c2ccc(C(=O)O)cc21	4.58 to 500 nM	> 500 nM
COc1ccc2c(c1)C=C(c1cccc(OCCN3CCOCC3)c1)Cn1c-2c(C2CCCCC2)c2ccc(C(=O)O)cc21	4.58 to 500 nM	> 500 nM
